For one test, the target named is T1, HDAC1 (Homo sapiens, UniProt Q13547).
T1 construct: purchased Enzolifesciences BML-AK511
Put plainly: Inhibition of HDAC1 activity (HDAC1 fluorimetric drug discovery assay kit). The following applies: test concentrations 100, 1000 and 10000 nM; 37° C., 60 minutes. It is filed as biochemical. The method, then: (§1) Assays were performed using a HDAC1 fluorimetric drug discovery assay kit (Enzolifesciences: BML-AK511) and a HDAC6 human recombinant (Calbiochem: 382180). The assay mixture of the kit was treated with a test compound at concentrations of 100, 1000 and 10000 nM for HDAC1 assay and concentrations of 0.1, 1, 10, 100 and 1000 nM for HDAC6 assay. The treated assay mixture was allowed to react at 37° C. for 60 minutes, and then was treated with a developer and allowed to stand at 37° C. for 30 minutes, followed by quantification of the fluorescence.

The target of the next test is T2, HDAC6 human recombinant (Homo sapiens, UniProt Q9UBN7).
T2 construct: purchased Calbiochem 382180
T2 sequence (Q9UBN7 1-1215): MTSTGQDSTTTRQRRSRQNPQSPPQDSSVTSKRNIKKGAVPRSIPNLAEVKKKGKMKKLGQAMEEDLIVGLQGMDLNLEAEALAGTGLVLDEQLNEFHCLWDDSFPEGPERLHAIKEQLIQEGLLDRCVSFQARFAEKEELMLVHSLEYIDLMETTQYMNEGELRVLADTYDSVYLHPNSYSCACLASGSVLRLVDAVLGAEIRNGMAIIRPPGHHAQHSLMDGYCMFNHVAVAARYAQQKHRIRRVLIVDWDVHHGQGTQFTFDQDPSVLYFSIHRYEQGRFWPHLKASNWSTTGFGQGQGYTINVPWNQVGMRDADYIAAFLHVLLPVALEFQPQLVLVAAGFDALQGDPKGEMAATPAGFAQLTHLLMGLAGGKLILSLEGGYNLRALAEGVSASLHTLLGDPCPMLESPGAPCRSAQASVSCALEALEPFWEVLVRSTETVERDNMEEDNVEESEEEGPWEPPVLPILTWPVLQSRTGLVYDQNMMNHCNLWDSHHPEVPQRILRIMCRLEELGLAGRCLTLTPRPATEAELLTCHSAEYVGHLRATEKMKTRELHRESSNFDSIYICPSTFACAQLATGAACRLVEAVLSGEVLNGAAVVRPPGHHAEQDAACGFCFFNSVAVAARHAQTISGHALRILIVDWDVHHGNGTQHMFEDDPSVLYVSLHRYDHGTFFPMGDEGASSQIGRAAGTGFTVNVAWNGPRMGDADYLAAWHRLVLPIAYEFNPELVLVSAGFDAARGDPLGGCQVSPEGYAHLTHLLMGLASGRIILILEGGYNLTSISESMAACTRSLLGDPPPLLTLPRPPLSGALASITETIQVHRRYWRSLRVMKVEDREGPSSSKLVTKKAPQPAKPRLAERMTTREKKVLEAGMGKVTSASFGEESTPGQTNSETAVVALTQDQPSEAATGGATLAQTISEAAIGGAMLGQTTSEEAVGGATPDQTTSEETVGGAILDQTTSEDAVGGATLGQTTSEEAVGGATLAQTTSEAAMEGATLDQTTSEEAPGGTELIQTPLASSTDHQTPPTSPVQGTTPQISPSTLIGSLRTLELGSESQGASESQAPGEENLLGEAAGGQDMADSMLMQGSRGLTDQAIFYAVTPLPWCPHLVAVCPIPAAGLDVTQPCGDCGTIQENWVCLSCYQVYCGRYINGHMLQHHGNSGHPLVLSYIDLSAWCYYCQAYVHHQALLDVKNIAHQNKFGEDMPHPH
Put plainly: Inhibition of HDAC6 activity (fluorimetric assay). It is filed as biochemical. The following applies: test concentrations 0.1, 1, 10, 100 and 1000 nM; 37° C., 60 minutes. On the procedure:
as §1

The structures appear in SMILES notation.

T1 sequence (Q13547 whole entry): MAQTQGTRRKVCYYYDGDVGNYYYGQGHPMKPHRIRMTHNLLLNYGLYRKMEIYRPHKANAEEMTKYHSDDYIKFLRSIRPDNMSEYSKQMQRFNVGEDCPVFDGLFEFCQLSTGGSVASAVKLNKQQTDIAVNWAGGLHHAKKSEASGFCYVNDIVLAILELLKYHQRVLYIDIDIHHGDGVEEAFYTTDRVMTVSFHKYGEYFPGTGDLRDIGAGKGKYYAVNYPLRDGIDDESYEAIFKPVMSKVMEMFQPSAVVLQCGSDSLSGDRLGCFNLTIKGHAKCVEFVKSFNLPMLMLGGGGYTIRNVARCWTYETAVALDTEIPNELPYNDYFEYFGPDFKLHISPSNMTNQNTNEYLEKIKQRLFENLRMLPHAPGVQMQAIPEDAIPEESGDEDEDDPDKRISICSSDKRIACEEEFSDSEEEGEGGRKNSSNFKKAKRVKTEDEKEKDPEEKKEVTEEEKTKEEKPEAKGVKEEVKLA

`CC(C)(C)OC(=O)N1CCN(c2cnc3c(ccn3Cc3ccc(C(=O)NO)cc3)c2)CC1` [Compound 746, tert-butyl 4-(1-(4-(hydroxycarbamoyl)benzyl)-1H-pyrrolo[2,3-b]pyridine-5-yl)piperazine-1-carboxylate]: the IC50 against HDAC1 stood at 1960 nM; at HDAC6 human recombinant, 22 nM.
In the case of `CC(C)(C)OC(=O)N1CC=C(c2nccc3c2ccn3Cc2ccc(C(=O)NO)cc2)CC1` [Compound 757, tert-butyl 4-(1-(4-(hydroxycarbamoyl)benzyl)-1H-pyrrolo[3,2-c]pyridin-4-yl)-5,6-dihydropyridine-1(2H)-carboxylate], the IC50 on HDAC1 was found to be 1120 nM; on HDAC6 human recombinant it was 17 nM.
Consider `CC(C)(C)OC(=O)N1CC=C(c2ccc3c(ccn3Cc3ccc(C(=O)NO)cc3)n2)CC1` [Compound 758, tert-butyl 4-(1-(4-(hydroxycarbamoyl)benzyl)-1H-pyrrolo[3,2-b]pyridin-5-yl)-5,6-dihydropyridine-1(2H)-carboxylate], for which the IC50 against HDAC1 came to 1630 nM; on HDAC6 human recombinant it was 8 nM.
`CC(C)(C)OC(=O)N1CCC(F)(CN2CCN(c3ccnc4c3ccn4Cc3ccc(C(=O)NO)cc3)CC2)CC1` [Compound 760, tert-butyl 4-fluoro-4-((4-(1-(4-(hydroxycarbamoyl)benzyl)-1H-pyrrolo[2,3-b]pyridin-4-yl)piperazin-1-yl)methyl)piperidine-1-carboxylate]: the IC50 against HDAC1 is 3210 nM; on HDAC6 human recombinant, 37 nM.
For `O=C(NO)c1ccc(Cn2ccc3c(-c4cccc(CN5CCOCC5)c4)ccnc32)cc1` [Compound 761, N-hydroxy-4-((4-(3-(morpholinomethyl)phenyl)-1H-pyrrolo[2,3-b]pyridin-1-yl)methyl)benzamide] the same measures were 430 nM and 9 nM.
For `O=C(NO)c1ccc(Cn2ccc3c(-c4ccc(CN5CCOCC5)cc4)ccnc32)cc1` [Compound 762, N-hydroxy-4-((4-(4-(morpholinomethyl)phenyl)-1H-pyrrolo[2,3-b]pyridin-1-yl)methyl)benzamide], the IC50 against HDAC1 was 780 nM; on HDAC6 human recombinant it was 10 nM.
The like results for `CC(C)(F)CN1CCN(Cc2ccc(-c3ccnc4c3ccn4Cc3ccc(C(=O)NO)cc3)cc2)CC1` [Compound 763, 4-((4-(4-((4-(2-fluoro-2-methylpropyl)piperazin-1-yl)methyl)phenyl)-1H-pyrrolo[2,3-b]pyridin-1-yl)methyl)-N-hydroxybenzamide] were, in that order, 4200 nM and 300 nM.
Turning to `CCC(F)(CC)CN1CCN(c2ccnc3c2ccn3Cc2ccc(C(=O)NO)cc2)CC1` [Compound 764, 4-((4-(4-(2-ethyl-2-fluorobutyl)piperazin-1-yl)-1H-pyrrolo[2,3-b]pyridin-1-yl)methyl)-N-hydroxybenzamide], the IC50 amounted to 3220 nM at HDAC1 and 91 nM on HDAC6 human recombinant.
Turning to `O=C(NO)c1ccc(Cn2ccc3cc(C4CCN(Cc5cccc(F)c5)CC4)cnc32)cc1` [Compound 781, 4-((5-(1-(3-fluorobenzyl)piperidin-4-yl)-1H-pyrrolo[2,3-b]pyridin-1-yl)methyl)-N-hydroxybenzamide], the results for the half-inhibitory concentration (IC50) against HDAC1 and on HDAC6 human recombinant were 2440 nM and 18 nM, respectively.
On to `CC(C)(C)OC(=O)N1CC=C(c2cc3c(ccn3Cc3ccc(C(=O)NO)cc3)cn2)CC1` [Compound 783, tert-butyl 4-(1-(4-(hydroxycarbamoyl)benzyl)-1H-pyrrolo[3,2-c]pyridin-6-yl)-5,6-dihydropyridine-1(2H)-carboxylate], for which the IC50 at HDAC1 amounted to 450 nM; at HDAC6 human recombinant, 12 nM.
Regarding `CC(C)(C)OC(=O)N1CC=C(c2ccnc3c2ccn3Cc2ccc(C(=O)NO)cc2)CC1` [Compound 784], the values for the half-maximal inhibitory concentration (IC50) against HDAC1 and at HDAC6 human recombinant were 930 nM and 16 nM, respectively.
As for `CC(C)(C)OC(=O)N1CC=C(c2cnc3ccn(Cc4ccc(C(=O)NO)cc4)c3c2)CC1` [Compound 786, tert-butyl 4-(1-(4-(hydroxycarbamoyl)benzyl)-1H-pyrrolo[3,2-b]pyridin-6-yl)-5,6-dihydropyridine-1(2H)-carboxylate], the IC50 at HDAC1 stood at 620 nM; on HDAC6 human recombinant, 5.7 nM.

The values are drawn from patent US9650379B2 (CHONG KUN DANG PHARMACEUTICAL CORP., priority 2013, dated 2017).
